# Measurements as given in article PMC4763008, “Selective Inhibition of Bakuchicin Isolated from Psoralea corylifolia on CYP1A in Human Liver Microsomes” (Evidence-based Complementary and Alternative Medicine : eCAM, 2016).
# Read-outs that look alike come from different tables or passages of the source.
# Assays:
# CYP2C8 = molecular target: T1, CYP2C8 (Homo sapiens, UniProt P10632); assay: CYP inhibition, cocktail of probe substrates in pooled human liver microsomes: paclitaxel hydroxylation; type: in vitro ADME; conditions: pooled HLMs, substrate 10 μM
# T1 construct: each reaction was performed with 0.5 mg/mL pooled human liver microsomes; tissue Corning Gentest BD UltraPool HLM 150; host or cells: pooled human liver microsomes
# T1 sequence (P10632 1-490): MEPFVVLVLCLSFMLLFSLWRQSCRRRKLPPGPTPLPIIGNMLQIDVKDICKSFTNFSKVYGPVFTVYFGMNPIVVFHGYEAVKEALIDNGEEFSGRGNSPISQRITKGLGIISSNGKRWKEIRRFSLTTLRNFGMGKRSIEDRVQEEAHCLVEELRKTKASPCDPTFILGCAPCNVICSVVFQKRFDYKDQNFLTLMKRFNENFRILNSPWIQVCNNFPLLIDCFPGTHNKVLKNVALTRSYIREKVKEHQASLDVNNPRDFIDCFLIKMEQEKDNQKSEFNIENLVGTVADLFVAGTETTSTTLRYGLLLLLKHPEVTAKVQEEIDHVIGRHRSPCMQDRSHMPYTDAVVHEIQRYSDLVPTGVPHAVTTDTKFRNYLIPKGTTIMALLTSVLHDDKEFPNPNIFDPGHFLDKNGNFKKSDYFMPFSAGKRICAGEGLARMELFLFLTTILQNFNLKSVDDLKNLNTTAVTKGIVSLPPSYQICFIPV
# CYP1A2 = molecular target: T2, CYP1A2 (Homo sapiens, UniProt P05177); assay: CYP inhibition, cocktail of probe substrates in pooled human liver microsomes: phenacetin O-deethylation; type: in vitro ADME; conditions: for IC50: pooled HLMs, substrate 80 μM
# T2 construct: tissue Corning Gentest BD UltraPool HLM 150; host or cells: pooled human liver microsomes
# T2 sequence (P05177 1-516): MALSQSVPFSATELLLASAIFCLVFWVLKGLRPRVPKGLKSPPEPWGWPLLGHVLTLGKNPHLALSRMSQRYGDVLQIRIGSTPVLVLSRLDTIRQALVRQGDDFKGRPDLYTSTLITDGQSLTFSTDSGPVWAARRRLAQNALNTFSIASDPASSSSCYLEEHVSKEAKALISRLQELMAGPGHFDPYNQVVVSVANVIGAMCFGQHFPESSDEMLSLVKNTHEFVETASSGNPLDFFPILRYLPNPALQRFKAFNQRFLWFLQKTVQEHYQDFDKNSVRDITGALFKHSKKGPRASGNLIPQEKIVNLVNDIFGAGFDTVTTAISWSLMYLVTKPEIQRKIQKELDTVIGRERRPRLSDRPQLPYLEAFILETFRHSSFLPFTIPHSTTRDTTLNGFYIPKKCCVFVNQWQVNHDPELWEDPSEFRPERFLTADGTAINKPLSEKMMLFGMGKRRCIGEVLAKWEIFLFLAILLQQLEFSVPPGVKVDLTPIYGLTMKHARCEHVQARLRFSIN
# Description: All incubations were performed in duplicate, and data are presented as means. Briefly, each reaction was performed with 0.5 mg/mL pooled human liver microsomes in a final incubation volume of 0.1 mL. The incubation medium consisted of 0.1 M potassium phosphate buffer (pH 7.4) containing cocktail of probe substrates and a NADPH-generating system (NGS) of 0.1 M glucose 6-phosphate, 10 mg/mL β-NADPH, and 1.0 U/mL glucose-6-phosphate dehydrogenase. To investigate the IC50 of bakuchicin during CYP1A inhibition, bakuchicin (at final concentrations of 0–25 μM) was incubated without preincubation. In addition, the mixture with bakuchicin was preincubated for 15 min without the probe substrate cocktail in the presence or absence of 1 mM β-NADPH. After the reaction was initiated by adding the NGS for 60 min, incubated samples were terminated by adding 100 μL acetonitrile containing 0.1% formic acid and 2.5 μL of internal standard solution (5 μM reserpine) in methanol. After mixing and centrifuging at 13,000 ×g for 12 min, a 5 μL aliquot was injected onto a C18 column for LC-MS/MS analysis.
# All measurements were performed using LC-MS/MS in multiple reaction monitoring mode. LC-MS/MS was performed using an Accela™ LC system coupled to a TSQ Vantage triple quadrupole mass spectrometer (Thermo Fisher Scientific Inc., USA) equipped with a HESI-II Spray source. Electrospray ionization was performed in positive mode at a spray voltage of 3,500 V (except for the detection of 6-hydroxy chlorzoxazone). Nitrogen was used as a sheath and auxiliary gas at optimum values of 45 and 20 (arbitrary units), respectively. Vaporizer and capillary temperatures were 150 and 300°C, respectively. For LC analysis an Inertsil® ODS-2 (3 μm, 2.1 × 150 mm) column (GL Sciences Inc., Torrance, CA) was used. The mobile phase consisted of acetonitrile (mobile phase A) and water (mobile phase B), both of which contained 0.1% formic acid, at a flow rate of 0.22 mL/min at 30°C.
# All incubations were performed in duplicate, and data are presented as means. IC50 values (the concentration of inhibitor causing a 50% inhibition in enzyme activity) were obtained using percent activity versus log[I] concentration plots. Kinetic parameters were estimated by curve fitting using SigmaPlot (version 12.0, Systat Software, Inc.).
# [1] = 15 min preincubation with NADPH, read-out: IC50 With preincubation with NADPH
# [2] = 15 min preincubation without NADPH, read-out: IC50 With preincubation Without NADPH
# [3] = without preincubation, read-out: IC50 Without preincubation
smiles,measurement,setting,value
O=c1ccc2c(ccc3ccoc32)o1 [Bakuchicin],IC50,CYP2C8; [1],> 100000 nM
same,IC50,CYP2C8; [2],> 100000 nM
same,IC50,CYP2C8; [3],> 100000 nM
same,time dependence of CYP1A inhibition,"CYP1A2; HLMs, preincubation time 0-20 min at 37°C",not time-dependent inhibition
same,IC50,CYP1A2; [1],220 nM
same,IC50,CYP1A2; [2],220 nM
same,IC50,CYP1A2; [3],430 nM
